Assay results as given in patent US10117890B2, “Methods and compositions for treating pain” (Academia Sinica, priority 2012, dated 2018).
“Also recorded” adds a separate entry of the source.

Columns and labels:
[1] = test system: ASIC3-expressing muscle nociceptors; test: Whole-cell patch clamp of acid-induced current in ASIC3-expressing muscle nociceptors; assay type: cell-based, mice; conditions: T1-11 10 nM; n=9
Procedure: To retrograde-trace muscle-afferent DRG neurons, mice were injected with 4% Fluorogold (Fluorochrome, Denver, Colo.) into the GM of both legs for 5 to 7 days, then lumbar DRG neurons were dissected and removed from both sides and placed in a tube for digestion with 1 ml DMEM containing 0.125% type 1 collagenase for 90 min and 0.25% trypsin for 20 min at 37° C. The digested DRG neurons were washed with fetal calf serum (FCS)-free DMEM or DMEM containing 10% FCS during each treatment. Fully digested DRGs were triturated and plated on poly-L-lysine-coated cover slides. Cell cultures were maintained in a 5% CO2 incubator at 37° C.
Whole-cell patch-clamp recordings of muscle-afferent neurons involved use of Axopatch MultiClamp 700B (Axon Instruments). Neurons with membrane potential >−40 mV were discarded. […]
Voltage-clamp mode was used to examine the effect of SP on acid-induced currents in ASIC3-expressing DRG neurons. A total of 40 GM and 6 non-GM DRG neurons were recorded in voltage-clamp mode with Vm held at −70 mV. […] To validate whether the modulation of SP on acid-induced current was NK1-receptor specific, acid-induced current was first recorded in a bath containing 10 μM RP67580 for 2 min as a control response. […] Acid-induced current was recorded in a bath containing both SP and genistein (30 μM; Tocris), or both SP and daidzein (30 μM; Tocris) for 3 min. […]

[2] = test system: acid-induced chronic muscle pain after genistein treatment; test: Modified acid-induced chronic muscle pain model with genistein treatment (fibromyalgia model); assay type: in vivo, mice
Procedure: Panel A: a diagram showing that mice were first received an intramuscular injection of genistein (a tyrosine kinase inhibitor) and an acid saline to one side of gastrocnemius muscle, and then pain behaviors were assayed by using von-Frey filament test at 4 hr (D0) and until 29 days (D29) after acid injection. Panel B: is a chart showing that the single acid injection induced long-lasting chronic hyperalgesia in mice with genistein pretreatment (open circles, n=5), but only transient hyperalgesia in mice without genistein pretreatment (filled circles, n=4).
Mice received an intramuscular acid injection in the gastrocnemius muscle (GM) containing 20 μl acid saline (pH 4.0) with or without (Sar^9, Met(O2)^11)-substance P (SP; 4, 10, or 40 μM) or 100 μM RP67580 or 200 μM XE991. Mechanical hyperalgesia was assessed by applying a 0.2-mN von Frey filament to the plantar surface of both hind paws of mice. […] Responses of the paw to mechanical stimuli were measured before injection and at 4 and 24 hr and 5 days after the first acid injection (day 0) and at 4, 24, and 72 hr and 1 week after the second acid injection (day 5). For single-injection experiments, responses to mechanical stimuli were measured before the injection, at 4 hr and at 1, 3, 5, 7, 9, 11, 13, 15 and 22 days after the injection or at 4, 24, 48 hr and 7 and 14 days after the injection. […]

## OC[C@H]1O[C@@H](n2cnc3c(NCc4ccc(O)cc4)ncnc32)[C@H](O)[C@@H]1O [T1-11, N^6-(4-hydroxybenzyl)adenosine]
[1]
  acid-induced current in ASIC3-expressing muscle nociceptors: is enough to inhibit acid-induced current; also recorded: inhibited acid-induced current in all ASIC3-expressing muscle nociceptors
[2]; T1-11 75-150 μg/kg (i.p.)
  analgesic effect on mice that have developed chronic muscle pain: dose-dependent analgesic effect
[2]; co-injection with acid, n=6, D0 to D29
  hyperalgesia after genistein pretreatment and single acid injection, co-injection of acid and T1-11: only showed the transient hyperalgesia
